The text below walks through data of ChEMBL document CHEMBL1128873, “The synthesis and antibacterial activity of 2-carbolinyl-carbapenems: potent anti-MRSA/MRCNS agents” (1995).

Usually MIC90 stands for the lowest concentration that inhibits either 90% of growth or 90% of the strains tested, depending on the study. The term MIC denotes the lowest concentration found to suppress growth. Low values mean a more susceptible organism, high ones a less susceptible organism.

Holding throughout (assay type): functional
The species named for one test is Sus scrofa. In words: DHP-I(porcine) susceptibility was determined.
For test [1], the system named is Staphylococcus sp. In words: In vitro antibacterial activity against Methicillin-resistant coagulase negative Staphylococci (MRCNS) by broth microtube dilution method; value ranges from 128 to >128.
The test system of test [2] is Staphylococcus aureus. In words: In vitro antibacterial activity against Methicillin-susceptible Staphylococcus aureus (MSSA) by agar disc diffusion assay method.
Another test concerns Serratia. In words: In vitro antibacterial against Serratia species. by agar disc diffusion assay method. (In general: A growth-free zone around the sample is the usual read-out of agar diffusion tests.)
In the next test the test system is Pseudomonas aeruginosa. In words: In vitro antibacterial against Pseudomonas aeruginosa by agar disc diffusion assay method.
For a further test, the system named is Klebsiella sp. In words: In vitro antibacterial against Klebsiella species. by agar disc diffusion assay method.
The next test relates to Proteus. In words: In vitro antibacterial against Proteus species. by agar disc diffusion assay method.
A further test relates to Enterococcus sp. In words: In vitro antibacterial against Enterococcus species. by agar disc diffusion assay method.
The test system of test [3] is Staphylococcus aureus. In words: In vitro antibacterial activity against Methicillin-resistant Staphylococcus aureus (MRSA) by broth microtube dilution method; value ranges from 128 to >128.
For a further test, the system named is Enterobacter sp. In words: In vitro antibacterial against Enterobacter species. by agar disc diffusion assay method.
The next test concerns Escherichia coli. In words: In vitro antibacterial against Escherichia coli by agar disc diffusion assay method.
Test [4] relates to Staphylococcus sp. In words: In vitro antibacterial activity against Methicillin-resistant coagulase negative Staphylococci (MRCNS) by broth microtube dilution method; value ranges from 4-8.
Test [5] deals with Staphylococcus aureus. In words: In vitro antibacterial activity against Methicillin-resistant Staphylococcus aureus (MRSA) by broth microtube dilution method.

Values after ≈ are worked out from the molar mass of the structure shown.

The molecule `C[C@@H](O)[C@H]1C(=O)N2C(C(=O)O)=C(SCCNC=N)C[C@H]12` [IMIPENEM ANHYDROUS] returned a Relative susceptibility in the test listed under Sus scrofa of 1. The MIC90 against Staphylococcus sp. [1] and in the test on Staphylococcus aureus [3] was greater than 128 µg/mL each time. For the same molecule, the MIC is 0.009 µg/mL (≈ 0.0301 µM) in the test on Staphylococcus aureus [2]; 0.76 µg/mL (≈ 2.54 µM) with Serratia; 0.31 µg/mL (≈ 1.04 µM) against Pseudomonas aeruginosa; 0.59 µg/mL (≈ 1.97 µM) against Klebsiella sp.; 0.95 µg/mL (≈ 3.17 µM) in the test on Proteus; 2.8 µg/mL (≈ 9.35 µM) in the test on Enterococcus sp.. In addition, the figures for the MIC against Enterobacter sp. and against Escherichia coli were 0.49 µg/mL (≈ 1.64 µM) and 0.68 µg/mL (≈ 2.27 µM), respectively.
Regarding `CN[C@H](CC(C)C)C(=O)N[C@H]1C(=O)N[C@@H](CC(N)=O)C(=O)N[C@H]2C(=O)N[C@H]3C(=O)N[C@H](C(=O)N[C@H](C(=O)O)c4cc(O)cc(O)c4-c4cc3ccc4O)[C@H](O)c3ccc(c(Cl)c3)Oc3cc2cc(c3O[C@@H]2O[C@H](CO)[C@@H](O)[C@H](O)[C@H]2O[C@H]2C[C@](C)(N)[C@H](O)[C@H](C)O2)Oc2ccc(cc2Cl)[C@H]1O` [VANCOMYCIN], the MIC90 against Staphylococcus sp. [4] is 4 µg/mL (≈ 2.76 µM); against Staphylococcus aureus [5], 2 µg/mL (≈ 1.38 µM).
